According to PMC4410016 (Cell reports, 2015):

Experiments:
[1] = biological target: MtrF (Neisseria gonorrhoeae, UniProt Q9RNX2); experiment: isothermal titration calorimetry; type: binding
[2] = biological target: MtrF (Neisseria gonorrhoeae, UniProt Q9RNX2, W420A); experiment: biochemical
[3] = biological target: Neisseria gonorrhoeae MtrF transporter (Neisseria gonorrhoeae); experiment: SEC

Nc1ccc(C(=O)O)cc1 [p-aminobenzoic acid]
Kd [1]: 0.54 ± 0.02 µM
Kd [2]: 41.1 ± 11.5 µM

Nc1ccc(S(=O)(=O)Nc2ncccn2)cc1 [sulfadiazine]
Kd [1]: 12.7 ± 0.62 µM
Kd [2]: 106 ± 25.6 µM

Cc1cc(C)nc(NS(=O)(=O)c2ccc(N)cc2)n1 [sulfamethazine]
Kd [1]: 0.33 ± 0.02 µM
Kd [2]: 10.8 ± 1.17 µM

Nc1ccc(S(=O)(=O)Nc2nccs2)cc1 [sulfathiazole]
Kd [1]: 1.52 ± 0.07 µM
Kd [2]: 50.8 ± 8.9 µM

Neisseria gonorrhoeae MtrF transporter (natural protein)
stoichiometry N [3]: 2
